Data taken from patent publication US20120108811A1, “PROCESS FOR PREPARING TEMOZOLOMIDE” (FORMOSA LABORATORIES INC., priority 2010, published 2012).

Tests used:
[1] = Long-term stability of Temozolomide prepared by the process of the present invention, 2-8° C.; assay type: physicochemical; conditions: process of the present invention, 2-8° C.
Description: The Temozolomide was stable at temperature 2-8° C. for at least 18 months.

[2] = Long-term stability of Temozolomide prepared by the process of the present invention, 25° C. ± 2° C., 60% ± 5% RH; assay type: physicochemical; conditions: for AICA NMT 0.15% / Appearance (White to off-white powder) / Assay (HPLC) (98.0-102.0%) / Purity (HPLC) NLT 99.0% / Total impurities NMT 1.00% / Water content (KF), NMT 1.00% / AHX NMT 0.15% / Individual unknown impurity NMT 0.10%: process of the present invention, 25° C. ± 2° C., RH 60% ± 5%
Description: The Temozolomide was stable at temperature 25 degree ° C. for at least 18 months.

Water content (KF), NMT 1.00% ([1]; 1 month): 0.07%
AICA NMT 0.15% ([1]; 2 months): 0.01%
Appearance (White to off-white powder) ([1]; 2 months): White
Assay (HPLC) (98.0-102.0%) ([1]; 2 months): 99.3%
Purity (HPLC) NLT 99.0% ([1]; 2 months): 100.0%
Total impurities NMT 1.00% ([1]; 2 months): 0.01%
Water content (KF), NMT 1.00% ([1]; 2 months): 0.04%
AICA NMT 0.15% ([1]; 3 months): 0.09%
Appearance (White to off-white powder) ([1]; 3 months): White
Assay (HPLC) (98.0-102.0%) ([1]; 3 months): 99.6%
Purity (HPLC) NLT 99.0% ([1]; 3 months): 99.7%
Total impurities NMT 1.00% ([1]; 3 months): 0.09%
Water content (KF), NMT 1.00% ([1]; 3 months): 0.09%
Appearance (White to off-white powder) ([1]; 6 months): White
Assay (HPLC) (98.0-102.0%) ([1]; 6 months): 99.9%
Purity (HPLC) NLT 99.0% ([1]; 6 months): 100.0%
Water content (KF), NMT 1.00% ([1]; 6 months): 0.12%
AICA NMT 0.15% ([1]; 9 months): 0.01%
Appearance (White to off-white powder) ([1]; 9 months): White
Assay (HPLC) (98.0-102.0%) ([1]; 9 months): 100.8%
Purity (HPLC) NLT 99.0% ([1]; 9 months): 100.0%
Total impurities NMT 1.00% ([1]; 9 months): 0.01%
Water content (KF), NMT 1.00% ([1]; 9 months): 0.15%
AICA NMT 0.15% ([1]; 12 months): 0.02%
Appearance (White to off-white powder) ([1]; 12 months): Light pink
Assay (HPLC) (98.0-102.0%) ([1]; 12 months): 99.8%
Purity (HPLC) NLT 99.0% ([1]; 12 months): 100.0%
Total impurities NMT 1.00% ([1]; 12 months): 0.02%
Water content (KF), NMT 1.00% ([1]; 12 months): 0.06%
Appearance (White to off-white powder) ([1]; 18 months): White
Assay (HPLC) (98.0-102.0%) ([1]; 18 months): 99.8%
Purity (HPLC) NLT 99.0% ([1]; 18 months): 100.0%
Water content (KF), NMT 1.00% ([1]; 18 months): 0.16%
Time stable ([2]; prepared by the process of the present invention, temperature 25 degree ° C.): at least 18 months
AICA NMT 0.15% ([2]; 0 time): 0.01%
Appearance (White to off-white powder) ([2]; 0 time): White
Assay (HPLC) (98.0-102.0%) ([2]; 0 time): 99.7%
Purity (HPLC) NLT 99.0% ([2]; 0 time): 100.0%
Total impurities NMT 1.00% ([2]; 0 time): 0.01%
Water content (KF), NMT 1.00% ([2]; 0 time): 0.09%
AICA NMT 0.15% ([2]; 1 month): 0.01%
Appearance (White to off-white powder) ([2]; 1 month): White
Assay (HPLC) (98.0-102.0%) ([2]; 1 month): 100.0%
Purity (HPLC) NLT 99.0% ([2]; 1 month): 100.0%
Total impurities NMT 1.00% ([2]; 1 month): 0.01%
Water content (KF), NMT 1.00% ([2]; 1 month): 0.12%
AICA NMT 0.15% ([2]; 2 months): 0.01%
Appearance (White to off-white powder) ([2]; 2 months): White
Assay (HPLC) (98.0-102.0%) ([2]; 2 months): 99.4%
Purity (HPLC) NLT 99.0% ([2]; 2 months): 100.0%
Total impurities NMT 1.00% ([2]; 2 months): 0.01%
Water content (KF), NMT 1.00% ([2]; 2 months): 0.04%
AHX NMT 0.15% ([2]; 3 months): 0.01%
AICA NMT 0.15% ([2]; 3 months): 0.11%
Appearance (White to off-white powder) ([2]; 3 months): White
Assay (HPLC) (98.0-102.0%) ([2]; 3 months): 99.4%
Purity (HPLC) NLT 99.0% ([2]; 3 months): 99.7%
Total impurities NMT 1.00% ([2]; 3 months): 0.11%
Water content (KF), NMT 1.00% ([2]; 3 months): 0.11%
Appearance (White to off-white powder) ([2]; 6 months): White
Assay (HPLC) (98.0-102.0%) ([2]; 6 months): 99.3%
Purity (HPLC) NLT 99.0% ([2]; 6 months): 100.0%
Water content (KF), NMT 1.00% ([2]; 6 months): 0.13%
AICA NMT 0.15% ([2]; 9 months): 0.02%
Appearance (White to off-white powder) ([2]; 9 months): White
Assay (HPLC) (98.0-102.0%) ([2]; 9 months): 100.8%
Purity (HPLC) NLT 99.0% ([2]; 9 months): 99.9%
Total impurities NMT 1.00% ([2]; 9 months): 0.02%
Water content (KF), NMT 1.00% ([2]; 9 months): 0.17%
AHX NMT 0.15% ([2]; 12 months): 0.01%
AICA NMT 0.15% ([2]; 12 months): 0.02%
Appearance (White to off-white powder) ([2]; 12 months): Light pink
Assay (HPLC) (98.0-102.0%) ([2]; 12 months): 99.8%
Individual unknown impurity NMT 0.10% ([2]; 12 months): 0.01%
Purity (HPLC) NLT 99.0% ([2]; 12 months): 99.9%
Total impurities NMT 1.00% ([2]; 12 months): 0.04%
Water content (KF), NMT 1.00% ([2]; 12 months): 0.04%
AICA NMT 0.15% ([2]; 18 months): 0.01%
Appearance (White to off-white powder) ([2]; 18 months): White
Assay (HPLC) (98.0-102.0%) ([2]; 18 months): 99.4%
Individual unknown impurity NMT 0.10% ([2]; 18 months): 0.01%
Purity (HPLC) NLT 99.0% ([2]; 18 months): 100.0%
Total impurities NMT 1.00% ([2]; 18 months): 0.02%
Water content (KF), NMT 1.00% ([2]; 18 months): 0.07%
Structure (SMILES): Cn1nnc2c(C(N)=O)ncn2c1=O [Temozolomide, 8-carbamoyl-3-methyl-imidazo[5,1-d]-1,2,3,5-tetrazin-4(3H)-one]
